Test results taken from patent US10995068B2, “Synthetic sphingolipid-like molecules, drugs, methods of their synthesis and methods of treatment” (The Regents of the University of California, priority 2015, dated 2021).

Key:
PC3 cells = assay: Phosphorylation in intact cells by UPLC-MS/MS, PC3; assay type: in vitro ADME, human; settings: 10 μM, 16 h incubation, percent of total compound recovered by UPLC-MS/MS
Description: Mass spectrometric quantification: One million PC3 or 5 million SW620 cells in one well of a 6 well plate are treated with 10 μM FTY720 or 5 for 16 h. Media (100 μl) is removed from the well and combined with 100 μl of acetonitrile. Cells are collected by scraping, pelleted, and re-suspended in 100 μl of HPLC-grade water followed by the addition of 100 μl acetonitrile. Seventy-five nanograms of the compounds not being quantified (FTY720 and FTY720-P for analysis of the phosphorylation of 5, or 5 and 5-P for the analysis of FTY720/FYT720-P) is added to serve as an internal standard to allow correction for loss of compound during sample preparation. […] Insoluble material is again removed by centrifugation and the supernatant analyzed for compound content. Twenty microliters of this de-proteinated sample is analyzed by UPLC-MS/MS (Waters Micromass Quattro Premier XE) equipped with a C18 reversed phase column (Waters) using an acetonitrile (+0.2% acetic acid) gradient elution. […] The cone voltages are 30V for FTY720 and 5, and 20V for FTY720-P and 5-P. A standard curve is generated using pure compounds to allow for quantification; standard curves were linear from 50-1000 ng/ml with an R^2 of 0.98 or greater. […]

[1] = Blood chemistry of pDKO mice; assay type: in vivo; settings: for Alkaline Phosphatase: Means ± SEM, n = 4, in U/L (unit assumed); for Albumin / Globulin / Total Protein: in g/dL (unit assumed); for Blood Urea Nitrogen / Ca^2+ / Cholesterol / P / Total Bilirubin: in mg/dL (unit assumed); for HCO^3−: in mmol/L (unit assumed); for Creatine: unit assumed
Description: In vivo studies. Experiments conducted in mice were performed in accordance with the Institutional Animal Care and Use Committee of University of California, Irvine following a power analysis conducted in consultation with the Biostatistics Shared Resource of Chao Family Comprehensive Cancer Center at UCI. Xenografts were produced by injecting 5 million cells subcutaneously in the flank of 10-16 week-old male or female NSG mice. Prostate isografts were produced in the same manner but in male 6-8 wk old C57BL/6 mice. Once tumors reached 100 mm^3, SH-BC-893 was administered by intraperitoneal (i.p.) injection or oral gavage as indicated. Tumor volume was calculated using the formula, volume (mm^3)=length [mm]×(width [mm])^2×0.52; BLI was measured using an IVIS imaging system (Xenogen). To generate pDKO mice on the C57BL6 background, Pten^flox mice (stock No. 0045597) and p53^flox mice (stock No. 008462) were obtained from the Jackson Laboratory and PB-Cre4 mice (strain #01XF5) were obtained from the NCI-Frederick Mouse Repository. Age-matched cohorts of pDKO males were generated by in vitro fertilization executed with the assistance of the Transgenic Mouse Facility at UC Irvine. Treatment was begun at 6-7 wks of age. […] Tumor samples were processed and imaged by the Pathology Research Services Core Facility at UC Irvine. Blood chemistry was analyzed by IDEXX BioResearch and complete blood counts were performed using a Hemavet hematology system.

[2] = system: cellular oxygen consumption; assay: Cellular oxygen consumption; assay type: cell-based; settings: XF24 Extracellular Flux Analyzer
Source text: Cells treated with oligomycin or rotenone/antimycin A, as expected, compensated for the loss of oxidative phosphorylation by increasing glycolysis, reducing the bound NADH fraction (FIG. 51F). Conversely, the glycolysis inhibitor 2-DG and starvation increased oxidative phosphorylation and the bound to free NADH ratio. SH-BC-893 mimicked the effect of amino acid and glucose starvation, increasing the bound NADH fraction and cellular oxygen consumption (FIGS. 51F and 51G). Cells responded similarly to the anti-inflammatory drug FTY720. Thus, the metabolic changes triggered by SH-BC-893 parallel those seen in cells with restricted access to key metabolic substrates.
Cell analysis: Viability and 4F2hc expression are determined by vital dye exclusion and flow cytometry. Oxygen consumption is measured with an XF24 Extracellular Flux Analyzer (Seahorse Bioscience); values are normalized to total protein. Confocal microscopy is performed on either a Zeiss LSM780 or a Nikon Eclipse Ti; vacuolation was monitored using a Nikon TE2000-S equipped with DIC filters. Anchorage-independent growth of SW620 cells is measured in DMEM-10 containing 0.35% agarose with a 0.5% agarose bottom layer. […] Plates were incubated at 37° C. in a humidified atmosphere containing 5% CO2 and colonies were counted after 12 days.

[3] = 60 mg/kg, at sacrifice, in U/L (unit assumed)
[4] = 120 mg/kg, at sacrifice, in U/L (unit assumed)

CCCCCCCCc1ccc([C@H]2CCN[C@@H]2CO)cc1.Cl [Compound 5, (2S,3R)-2-(hydroxymethyl)-3-(4-octylphenyl)Pyrrolidinium chloride]
efficiency of phosphorylation in intact cells (PC3 cells): phosphorylated slightly more efficiently than FTY720
Glucose ([1]; 60 mg/kg, at sacrifice): 282 ± 24^
Alkaline Phosphatase ([1]; 60 mg/kg, at sacrifice): 77 ± 7.8
Creatine Phosphokinase [1, 3]: 5,340 ± 2366
Serum Glutamic Oxaloacetic Transaminase (Asp aminotransferase) [1, 3]: 640 ± 136
Serum Glutamic-Pyruvic Transaminase (Ala aminotransferase) [1, 3]: 78 ± 25
Albumin ([1]; 60 mg/kg, at sacrifice): 3 ± 0.2
Globulin ([1]; 60 mg/kg, at sacrifice): 2 ± 0.18
Total Protein ([1]; 60 mg/kg, at sacrifice): 5 ± 0.4
Blood Urea Nitrogen ([1]; 60 mg/kg, at sacrifice): 19 ± 1.1
Ca^2+ ([1]; 60 mg/kg, at sacrifice): 10 ± 0.7
Cholesterol ([1]; 60 mg/kg, at sacrifice): 134 ± 15.8
P ([1]; 60 mg/kg, at sacrifice): 11 ± 1.0
Total Bilirubin ([1]; 60 mg/kg, at sacrifice): 0.1 ± 0
HCO^3− ([1]; 60 mg/kg, at sacrifice): 20 ± 3.2
Creatine ([1]; 60 mg/kg, at sacrifice): < 0.2 mg/dL
Glucose ([1]; 120 mg/kg, at sacrifice): 307 ± 28^
Alkaline Phosphatase ([1]; 120 mg/kg, at sacrifice): 83 ± 6.2
Serum Glutamic Oxaloacetic Transaminase (Asp aminotransferase) [1, 4]: 907 ± 171
Serum Glutamic-Pyruvic Transaminase (Ala aminotransferase) [1, 4]: 91 ± 17.2
Albumin ([1]; 120 mg/kg, at sacrifice): 3 ± 0.1
Globulin ([1]; 120 mg/kg, at sacrifice): 2 ± 0.03
Total Protein ([1]; 120 mg/kg, at sacrifice): 6 ± 0.2
Blood Urea Nitrogen ([1]; 120 mg/kg, at sacrifice): 23 ± 1.5
Ca^2+ ([1]; 120 mg/kg, at sacrifice): 10 ± 0.1
Cholesterol ([1]; 120 mg/kg, at sacrifice): 107 ± 7.5
P ([1]; 120 mg/kg, at sacrifice): 13 ± 0.1
Total Bilirubin ([1]; 120 mg/kg, at sacrifice): 0.2 ± 0.03
HCO^3− ([1]; 120 mg/kg, at sacrifice): 17 ± 2.8
Creatine ([1]; 120 mg/kg, at sacrifice): < 0.2 mg/dL
toxicity to the liver or kidneys by blood chemistry at sacrifice ([1]; anti-neoplastic dose): not toxic to the liver or kidneys
cellular oxygen consumption [2]: increasing
